Our source for the Ki and melting point values is patent US6489337B1, “Method for treating histamine H3 receptor-mediated disorders with 2- or 3-aryl substituted imidazo[1,2-a] pyridines” (Ortho-McNeil Pharmaceutical, Inc., priority 2000, dated 2002).

For data set [1], the target named is T1, human histamine H3 receptor (Homo sapiens, UniProt Q9Y5N1).
T1 construct: expressed in transfected cells; membranes prepared from cell pellets
The data set is described as follows: [3H]-N-methylhistamine binding. Conditions: membranes of histamine H3 receptor-expressing SK-N-MC cells; 0.8 nM [3H]-N-methylhistamine; 45 minutes at 25° C.; KI=(IC50)/(1+([L]/(KD)), KD 800 pM. The procedure: In the present invention receptor binding was determined using the human histamine H3 receptor (See Lovenberg et al Mol. Pharmacol. 1999, 1107). Screening using the human receptor is particularly important for the identification of new therapies for the treatment of human disease. Conventional binding assays for example are determined using rat synaptosomes (Garbarg et al J. Pharmacol. Exp. Ther. 1992, 263, 304), rat cortical membranes (West et al Mol. Pharmacol. 1990, 610), and guinea pig brain (Korte et al Biochem. Biophys. Res. Commun. 1990, 978). Only limited studies have been performed previously using human tissue but these allude to significant differences in the pharmacology of rodent and primate receptors (West et al Eur. J. Pharmacol. 1999, 233).
A 10 cm tissue culture dish with a confluent monolayer of SK-N-MC cells was split two days prior to transfection. Using sterile technique the media was removed and the cells were detached from the dish by the addition of trypsin. One fifth of the cells were then placed onto a new 10 cm dish. Cells were grown in a 37° C. incubator with 5% CO2 in Minimal Essential Media Eagle with 10% Fetal Bovine Serum. After two days cells were approximately 80% confluent. These were removed from the dish with trypsin and pelleted in a clinical centrifuge. The pellet was then re-suspended in 400 μL complete media and transferred to an electroporation cuvette with a 0.4 cm gap between the electrodes (Bio-Rad #165-2088). One microgram supercoiled H3 receptor cDNA was added to the cells and mixed. The voltage for the electroporation was set at 0.25 kV, the capacitance is set at 960 μF.
After electroporation the cells were diluted into 10 mL complete media and plated onto four 10 cm dishes. Due to the variability in the efficiency of electroporation, four different concentrations of cells were plated. The ratios used were: 1:20, 1:10, and 1:5, with the remainder of the cells being added to the fourth dish. The cells were allowed to recover for 24 hours before adding the selection media (complete media with 600 μg/ml G418). After 10 days dishes were analyzed for surviving colonies of cells. Dishes with well-isolated colonies were used. Cells from individual colonies were isolated and tested. SK-N-MC cells were used because they give efficient coupling for inhibition of adenylate cyclase. The clones that gave the most robust inhibition of adenylate cyclase in response to histamine were used for further study.
1(B) [^3H]-N-methylhistamine Binding
Cell pellets from histamine H3 receptor-expressing SK-N-MC cells were homogenized in 20 mM TrisHCl/0.5 mM EDTA. Supernatants from a 800 g spin were collected, recentrifuged at 30,000 g for 30 minutes. Pellets were rehomogenized in 50 mM Tris/5 mM EDTA (pH 7.4). Membranes were incubated with 0.8 nM [^3H]-N-methylhistamine plus/minus test compounds for 45 minutes at 25° C. and harvested by rapid filtration over GF/C glass fiber filters (pretreated with 0.3% polyethylenimine) followed by four washes with ice cold buffer. Filters were dried, added to 4 mL scintillation cocktail and then counted on a liquid scintillation counter. Non-specific binding was defined with 10 μM histamine according to Chen and Prusoff, Biochem. Pharmacol. 1973, 22:3099. KI values were calculated based on a KD of 800 pM and a ligand concentration ([L]) of 800 pM according to the formula: KI=(IC50)/(1+([L]/(KD)). KI values are provided in the examples above.

Molecules are shown by their SMILES. pKi: −log10 of the molar value. Structures can show the parent of a compound that is named as a salt.

T1 sequence (Q9Y5N1 whole entry): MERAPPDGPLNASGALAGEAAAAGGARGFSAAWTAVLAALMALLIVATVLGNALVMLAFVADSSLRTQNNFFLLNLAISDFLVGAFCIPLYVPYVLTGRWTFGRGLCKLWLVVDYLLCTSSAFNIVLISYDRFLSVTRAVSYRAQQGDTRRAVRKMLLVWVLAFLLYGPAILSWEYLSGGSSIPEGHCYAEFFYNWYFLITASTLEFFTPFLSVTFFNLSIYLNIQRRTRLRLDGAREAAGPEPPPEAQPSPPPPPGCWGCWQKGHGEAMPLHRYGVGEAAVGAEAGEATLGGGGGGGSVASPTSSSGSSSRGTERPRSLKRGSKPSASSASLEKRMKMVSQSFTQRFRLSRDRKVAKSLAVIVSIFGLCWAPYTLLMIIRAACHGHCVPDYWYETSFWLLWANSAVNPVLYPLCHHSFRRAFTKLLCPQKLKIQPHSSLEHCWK

Usually pKi stands for the Ki on a negative log10 scale, so that one unit is a factor of ten. `CCCCN(CCCC)CCCOc1ccc(-c2cn3cccc(C)c3n2)cc1` [Example 2, 2-[4-[3-(Dibutylamino)propoxy]phenyl)-8-methylimidazo[1,2-a]pyridine] gave a pKi in data set [1] of 6.30.

For the compound `Cc1cccn2cc(-c3ccc(OCCN(C(C)C)C(C)C)cc3)nc12` [Example 11, 2-(4-Diisopropylaminoethoxyphenyl)-8-methylimidazo[1,2-a]pyridine], the pKi in data set [1] is 7.26.

In turn, `CCN(CC)CCOc1ccc(-c2cn3cccc(C)c3n2)cc1` [Example 10, 2-(4-Diethylaminoethoxyphenyl)-8-methylimidazo[1,2-a]pyridine] had a pKi in data set [1] of 7.82.

A word on the melting point: it is the temperature, or range, at which the solid turns liquid. In turn, `CCCCN(CCCC)CCCOc1ccc(C(=O)c2cn3cccc(C)c3n2)cc1` (as salt: HCl) [Example 5, 2-(4-Dibutylaminopropoxybenzoyl)-8-methylimidazo[1,2-a]pyridine] displayed a melting point of 159 to 161 °C.

Consider `CCCCN(CCCC)CCCOc1ccc(C(=O)c2cn3ccc(C)cc3n2)cc1` [Example 3, [4-(3-dibutylamino-propoxy)-phenyl]-(7-methyl-imidazo[1,2-a]pyridin-2-yl)-methanone], for which the pKi in data set [1] is 7.15.

Compound `CCCCN(CCCC)CCCOc1ccc(-c2cn3cccc(C)c3n2)cc1` (as salt: HCl) [Example 2, 2-[4-[3-(Dibutylamino)propoxy]phenyl)-8-methylimidazo[1,2-a]pyridine] displayed a melting point of 214 to 217 °C.

As to `CCCCN(CCCC)CCCOc1ccc(-c2cn3ccccc3n2)cc1` (as salt: HCl) [Example 1, 2-(4-Dibutylaminopropoxyphenyl)imidazo[1,2-a]pyridine], the melting point lay in the range of 179 to 183 °C.

With `Cc1cccn2cc(-c3ccc(OCCCN(C)C)cc3)nc12` [Example 8, 2-(4-Dimethylaminopropoxyphenyl)-8-methylimidazo[1,2-a]pyridine], the pKi in data set [1] was 7.85.

The compound `CCCCCN(CCCCC)CCCOc1ccc(-c2cn3cccc(C)c3n2)cc1` [Example 13, 2-(4-Dipentylaminopropoxyphenyl)-8-methylimidazo[1,2-a]pyridine] had a pKi in data set [1] of 6.30.

Regarding `CCCN(CCC)CCCOc1ccc(-c2cn3cccc(C)c3n2)cc1` [Example 7, 2-(4-Dipropylaminopropoxyphenyl)-8-methylimidazo[1,2-a]pyridine], in data set [1], the pKi is 7.36.

The compound `CCCCN(CCCC)CCCOc1ccc(C(=O)c2cn3cccc(C)c3n2)cc1` [Example 5, 2-(4-Dibutylaminopropoxybenzoyl)-8-methylimidazo[1,2-a]pyridine] gave a pKi in data set [1] of 6.30.

In data set [1], `CCCN(CCC)CCCOc1ccc(-c2cn3cccc(C)c3n2)cc1C` [Example 14, 2-(4-Dipropylaminopropoxy-(3-methyl)-phenyl)-8-methylimidazo[1,2-a]pyridine] showed a pKi of 7.85.

In turn, `CN(C)CCCOc1ccc(-c2cn3ccccc3n2)cc1` [Example 9, 2-(4-Dimethylaminopropoxyphenyl)imidazo[1,2-a]pyridine] gave a pKi in data set [1] of 6.92.

For `CCCCN(CCCC)CCCOc1ccc(-c2nc3c(C)cccn3c2C)cc1` [Example 4, 2-(4-Dibutylaminopropoxyphenyl)-3,8-dimethylimidazo[1,2-a]pyridine], the pKi in data set [1] was 6.49.

On to `CCCCN(CCCC)CCCOc1ccc(-c2nc3c(C)cccn3c2C)cc1` (as salt: HCl) [Example 4, 2-(4-Dibutylaminopropoxyphenyl)-3,8-dimethylimidazo[1,2-a]pyridine], for which the melting point was 202 to 204 °C.
